Experimental data reported in publication PMC9929232, “On-demand male contraception via acute inhibition of soluble adenylyl cyclase” (Nature Communications, 2023).
pIC50: −log10 of the molar value.

Key:
[1] = biological target: T1, sAC-overexpressing rat 4-4 cells (Rattus norvegicus, UniProt Q9Z286); parameters: method as in PMID 36246105; settings: read-out: IC50 in cellular assays; cited from earlier work
T1 construct: expressed in transfected cells
T1 sequence (Q9Z286 1-469 limits assumed): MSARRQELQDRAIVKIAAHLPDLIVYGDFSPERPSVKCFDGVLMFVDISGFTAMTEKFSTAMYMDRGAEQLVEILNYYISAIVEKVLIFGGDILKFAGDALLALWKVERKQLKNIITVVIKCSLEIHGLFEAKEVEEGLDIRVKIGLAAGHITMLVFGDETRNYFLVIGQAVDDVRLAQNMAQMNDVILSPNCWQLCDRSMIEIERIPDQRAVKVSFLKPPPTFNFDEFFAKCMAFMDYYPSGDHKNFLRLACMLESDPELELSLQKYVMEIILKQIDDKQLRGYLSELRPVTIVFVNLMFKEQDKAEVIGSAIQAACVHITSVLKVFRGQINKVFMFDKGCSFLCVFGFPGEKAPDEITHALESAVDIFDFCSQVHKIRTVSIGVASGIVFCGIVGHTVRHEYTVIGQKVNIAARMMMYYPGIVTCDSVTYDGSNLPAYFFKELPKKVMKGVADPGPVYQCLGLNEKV

[2] = test system: testis, epididymis, kidneys, eyes, liver, spleen, pancreas; settings: mouse, in vivo
Method: (§1) At defined time points (15 min to 24 hours post-injection), 10 μl tail blood was progressively collected from the same males, mixed with 20 μl 15 mM EDTA, frozen in liquid nitrogen, and stored at −80 °C until analysis. Liver, kidney, eye, testis, caput and cauda epididymis, and seminal vesicle were collected, weighed, and homogenized in a threefold volume of 1:1 EtOH/H2O (v/v). […] Mice anesthetized with ketamine/xylazine were shaved and residual hair was removed with hair removal cream. A small incision was made with a scalpel, a hemostat was used to create a pump-size pocket under the skin, and the pump was inserted with the pump opening facing away from the incision. After the wound was closed, mice were treated with meloxicam for pain relief. For 7 or 42 days post-surgery, tail blood was collected at regular intervals.
Blinded histopathological evaluation of indicated organs (testis, epididymis, kidneys, eyes, liver, spleen, and pancreas) was performed by a board-certified comparative pathologist at the WCM Laboratory of Comparative Pathology. […] Organs were fixed in 10% neutral buffered formalin followed by embedding into paraffin. Sections were cut followed by staining with hematoxylin and eosin (H&E) for microscopic evaluation.

[3] = TDI-11155 blood concentration during osmotic minipump delivery; type: in vivo, mouse
Method: as §1

Cn1cc(Cc2ccccc2OCCN2CCOCC2)c(-c2cc(Cl)nc(N)n2)n1 [TDI-11155]
pIC50 [1]: 7.80 | Epididymis: Epithelial karyomegaly [2]: 2, MF | Epididymis: Exfoliated germ cells [2]: 1, MF | Eyes [2]: N | Kidneys: Lymphoplasmacytic and histiocytic infiltrates, pelvic [2]: 1, MF | Kidneys: Tubular basophilia, cortical [2]: 1, F | Kidneys: Tubular mineralization, papillary [2]: 1, F | Liver: Extramedullary hematopoiesis, random [2]: 1, MF | Liver: Lymphoplasmacytic, histiocytic, and neutrophilic hepatitis, midzonal [2]: 1, F | Liver: Lymphoplasmacytic, histiocytic, and neutrophilic hepatitis, periportal [2]: 2, F | Pancreas [2]: N | Spleen [2]: N | behavioral effects during treatment [2]: no observed behavioral effects | gross abnormalities in major organs at study termination [2]: no gross abnormalities | salt precipitation in kidneys [2]: no signs of salt precipitation | delivered level relative to cellular IC50 ([3]; 7 days): 15 fold | delivered level relative to cellular IC50 ([3]; 42 days): threefold
